{
  "source": "paper PMC11864979",
  "about": "“First-in-class ultralong-target-residence-time p38α inhibitors as a mitosis-targeted therapy for colorectal cancer” (Nature Cancer, 2025)",
  "key": {"p38α": {"target": "p38α (Homo sapiens, UniProt Q16539)", "sequence (Q16539 whole entry)": "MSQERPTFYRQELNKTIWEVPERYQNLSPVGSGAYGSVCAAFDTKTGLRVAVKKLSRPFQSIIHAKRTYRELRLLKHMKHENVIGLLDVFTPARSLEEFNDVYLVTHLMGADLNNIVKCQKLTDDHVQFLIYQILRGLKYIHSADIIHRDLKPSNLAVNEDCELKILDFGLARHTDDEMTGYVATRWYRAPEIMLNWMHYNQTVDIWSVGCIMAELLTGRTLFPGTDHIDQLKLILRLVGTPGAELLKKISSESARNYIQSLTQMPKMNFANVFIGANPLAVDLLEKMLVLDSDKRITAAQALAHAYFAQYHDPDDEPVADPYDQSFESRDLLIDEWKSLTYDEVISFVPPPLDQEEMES", "experiment": "target residence time (TRT) fluorescence polarization jump-dilution assay", "format": "binding", "procedure": "TRTs were determined using a fluorescence polarization assay kit (Transcreener ADP, BellBrook Labs)[29]. […] The formed complex was ‘jump-diluted’ 1:100 (0.5 µl in 49.5 µl) in a 96-half-area-well plate with ATF2 (82 μM), ATP (40 μM) and ADP as the kinase assay detection reagents. The plate was measured every 3 min for 4 h. Fluorescence polarization was detected using the plate reader VictorNivo (PerkinElmer). The data were analyzed using the integrated rate equation in GraphPad Prism version 7.03 software. The residence time was calculated from the reciprocal value of koff."}, "PDO8": {"tested_on": "PDO8", "experiment": "cell viability in patient-derived CRC organoids PDO8", "format": "cell-based, human", "procedure": "(§1) For in vitro treatment studies, organoids were mechanically dissociated and digested using TrypLE supplemented with 100 µg ml^−1 DNaseI and 10.5 µM Y-27632 dihydrochloride (Invitrogen) at 37 °C. A total of 1,000–2,000 single cells were plated per well in white 96-well plates (Greiner) in culture medium containing 10% GFR Matrigel or Cultrex BME. The treatment with doxycycline (5 µg ml^−1), pharmacological inhibitors or corresponding volumes of DMSO was started 24 h after plating. Doxycycline was obtained from Sigma-Aldrich. […] Cell viability was measured by means of CellTiter-Glo 3D or CellTiter-Glo 2.0 reagent (Promega) according to the manufacturers’ instructions and the Infinite M Plex reader (Tecan, i-control version 3.9.1 software). Results were normalized to vehicle (DMSO) or to shNC. For cell-doubling assays, the cell number was quantified at the corresponding time points using Guava EasyCyte flow cytometer (Luminex, CytoSoft v5.2 software)."}, "PDO11": {"tested_on": "PDO11", "experiment": "cell viability in patient-derived CRC organoids PDO11", "format": "cell-based, human", "procedure": "as §1"}, "PDO12": {"tested_on": "PDO12", "experiment": "cell viability in patient-derived CRC organoids PDO12", "format": "cell-based, human", "conditions": "PDO12, 0.5 µM, 4 d", "procedure": "as §1"}, "PDO14": {"tested_on": "PDO14", "experiment": "cell viability in patient-derived CRC organoids PDO14", "format": "cell-based, human", "procedure": "as §1"}, "HCT-15": {"tested_on": "HCT-15", "experiment": "cell viability in human CRC cell line HCT-15", "format": "cell-based", "procedure": "To generate KAP^2D cells, KAP organoids were isolated from Matrigel, fragmented by mechanical dissociation and plated without any extracellular matrix on common cell culture dishes. Phoenix-Eco packaging cells (CRL-3214), HCT-15 (CCL-225), HCT 116 (CCL-247), COLO 205 (CCL-222), LS 174T (CL-188), RKO (CRL-2577) and HT-29 (HTB-38) were obtained from the American Type Culture Collection. The cells were cultured at 37 °C and 7% CO2 with RPMI (KAP^2D cells) or DMEM (other cell lines), supplemented with 10% FBS and penicillin–streptomycin. KAP^2D cells were authenticated using PCR (Kras locus and Trp53 locus). Phoenix-Eco packaging cells and HCT-15, HCT 116, COLO 205, LS 174T, RKO and HT-29 cells were authenticated by the provider using short tandem repeat profiling. No commonly misidentified cell lines were used. Mycoplasma contamination was excluded by a PCR-based analysis.\nas §1"}, "LS 174T": {"tested_on": "LS 174T", "experiment": "cell viability in human CRC cell line LS 174T", "format": "cell-based", "conditions": "4 d", "method": "The cells were cultured at 37 °C and 7% CO2 with RPMI (KAP^2D cells) or DMEM (other cell lines), supplemented with 10% FBS and penicillin–streptomycin. […] No commonly misidentified cell lines were used. Mycoplasma contamination was excluded by a PCR-based analysis."}},
  "note": "Where “and” joins values, the source holds several entries; their conditions need not be identical. Equal values may be shown once.",
  "data": [
    {"smiles": "CNC(=O)c1ccc2c(c1)C(=O)c1ccc(Nc3ccc(F)c(NC(=O)C4CC4)c3)cc1CC2", "note": "[Compound 2015]", "values": [
      {"measurement": "TRT", "setting": "p38α; Fig. 2e, replicates", "value": "4961.7 s and 5666.0 s and 5182.4 s"},
      {"measurement": "TRT", "setting": "p38α; reciprocal of koff", "value": "5,270 s"},
      {"measurement": "viability at 1 µM", "setting": "PDO8; Homo sapiens, 96 h, PDO8, 1 µM, 4 days", "value": 47.8, "unit": "%"},
      {"measurement": "Cell viability (%)", "setting": "PDO8; PDO8, 0.5 µM, 4 d, 0.5 µM", "value": "62.35% and 47.16% and 31.30%"},
      {"measurement": "Cell viability (%)", "setting": "PDO8; PDO8, 1 µM, 4 days, 1 µM", "value": "40.47% and 33.30%"},
      {"measurement": "viability at 0.5 µM", "setting": "PDO11; Homo sapiens, 96 h, PDO11, 0.5 µM, 4 d, read-out: Cell viability (%)", "value": 105, "unit": "%"},
      {"measurement": "viability at 1 µM", "setting": "PDO11; Homo sapiens, 96 h, PDO11, 1 µM, 4 days", "value": 10.3, "unit": "%"},
      {"measurement": "Cell viability (%)", "setting": "PDO11; PDO11, 0.5 µM, 4 d, 0.5 µM", "value": "87.92% and 104.04%"},
      {"measurement": "Cell viability (%)", "setting": "PDO11; PDO11, 1 µM, 4 days, 1 µM", "value": "16.83% and 13.26%"},
      {"measurement": "viability at 0.5 µM", "setting": "PDO12; Homo sapiens, 96 h, read-out: Cell viability (%)", "value": 40, "unit": "%"},
      {"measurement": "Cell viability (%)", "setting": "PDO12; 0.5 µM", "value": "54.51% and 54.94%"},
      {"measurement": "viability at 1 µM", "setting": "PDO14; Homo sapiens, 96 h, PDO14, 1 µM, 4 days, read-out: Cell viability (%)", "value": 38, "unit": "%"},
      {"measurement": "Cell viability (%)", "setting": "PDO14; PDO14, 0.5 µM, 4 d, 0.5 µM", "value": "66.36% and 80.25% and 88.11%"},
      {"measurement": "Cell viability (%)", "setting": "PDO14; PDO14, 1 µM, 4 days, 1 µM", "value": "35.04% and 42.53%"},
      {"measurement": "HCT-15 Cell viability (%)", "setting": "HCT-15; 0.0137 µM, 4 d", "value": "103.10% and 103.13% and 91.18% and 87.03% and 85.56%"},
      {"measurement": "HCT-15 Cell viability (%)", "setting": "HCT-15; 0.0412 µM, 4 d", "value": "84.86% and 83.29% and 102.50% and 98.30% and 96.97%"},
      {"measurement": "HCT-15 Cell viability (%)", "setting": "HCT-15; 0.1235 µM, 4 d", "value": "82.55% and 82.85% and 86.50% and 79.01% and 79.10%"},
      {"measurement": "HCT-15 Cell viability (%)", "setting": "HCT-15; 0.3704 µM, 4 d", "value": "32.71% and 35.41% and 27.58% and 24.60% and 25.76%"},
      {"measurement": "HCT-15 Cell viability (%)", "setting": "HCT-15; 1.1111 µM, 4 d", "value": "27.21% and 26.38% and 23.73% and 21.02% and 21.11%"},
      {"measurement": "HCT-15 Cell viability (%)", "setting": "HCT-15; 3.3333 µM, 4 d", "value": "22.84% and 23.64% and 17.67% and 16.95% and 16.80%"},
      {"measurement": "HCT-15 Cell viability (%)", "setting": "HCT-15; 10.0000 µM, 4 d", "value": "23.68% and 23.79% and 17.32% and 16.59% and 17.19%"},
      {"measurement": "IC50", "setting": "HCT-15; Homo sapiens, 96 h, HCT-15, 4 d of treatment", "value": 0.182, "unit": "µM"},
      {"measurement": "viability at 0.0137 µM", "setting": "HCT-15; Homo sapiens, HCT-15, 96 h, 0.0137 µM, 4 d, read-out: HCT-15 Cell viability (%)", "value": 103, "unit": "%"},
      {"measurement": "viability at 0.0412 µM", "setting": "HCT-15; Homo sapiens, HCT-15, 96 h, 0.0412 µM, 4 d, read-out: HCT-15 Cell viability (%)", "value": 89.2, "unit": "%"},
      {"measurement": "viability at 0.1235 µM", "setting": "HCT-15; Homo sapiens, HCT-15, 96 h, 0.1235 µM, 4 d, read-out: HCT-15 Cell viability (%)", "value": 85.9, "unit": "%"},
      {"measurement": "viability at 0.3704 µM", "setting": "HCT-15; Homo sapiens, HCT-15, 96 h, 0.3704 µM, 4 d, read-out: HCT-15 Cell viability (%)", "value": 23.5, "unit": "%"},
      {"measurement": "viability at 1.1111 µM", "setting": "HCT-15; Homo sapiens, HCT-15, 96 h, 1.1111 µM, 4 d, read-out: HCT-15 Cell viability (%)", "value": 31.6, "unit": "%"},
      {"measurement": "viability at 3.3333 µM", "setting": "HCT-15; Homo sapiens, HCT-15, 96 h, 3.3333 µM, 4 d, read-out: HCT-15 Cell viability (%)", "value": 23.9, "unit": "%"},
      {"measurement": "viability at 10 µM", "setting": "HCT-15; Homo sapiens, HCT-15, 96 h, 10.0000 µM, 4 d, read-out: HCT-15 Cell viability (%)", "value": 24.1, "unit": "%"},
      {"measurement": "LS 174T Cell viability (%)", "setting": "LS 174T; 0.0137 µM", "value": "96.94% and 94.17% and 83.74% and 81.63% and 85.36%"},
      {"measurement": "LS 174T Cell viability (%)", "setting": "LS 174T; 0.0412 µM", "value": "73.38% and 70.71% and 85.74% and 87.33% and 89.84%"},
      {"measurement": "LS 174T Cell viability (%)", "setting": "LS 174T; 0.1235 µM", "value": "69.97% and 51.36% and 67.79% and 77.35% and 76.20% and 73.53%"},
      {"measurement": "LS 174T Cell viability (%)", "setting": "LS 174T; 0.3704 µM", "value": "24.32% and 25.80% and 26.81% and 26.78% and 26.48%"},
      {"measurement": "LS 174T Cell viability (%)", "setting": "LS 174T; 1.1111 µM", "value": "31.73% and 32.17% and 36.58% and 37.87% and 35.55%"},
      {"measurement": "LS 174T Cell viability (%)", "setting": "LS 174T; 3.3333 µM", "value": "32.71% and 33.28% and 34.27% and 33.01% and 33.12%"},
      {"measurement": "LS 174T Cell viability (%)", "setting": "LS 174T; 10.0000 µM", "value": "28.71% and 24.62% and 25.79% and 25.85%"},
      {"measurement": "viability at 0.0137 µM", "setting": "LS 174T; Homo sapiens, LS174T, 96 h, 0.0137 µM, read-out: LS 174T Cell viability (%)", "value": 92.3, "unit": "%"},
      {"measurement": "viability at 0.0412 µM", "setting": "LS 174T; Homo sapiens, LS174T, 96 h, 0.0412 µM, read-out: LS 174T Cell viability (%)", "value": 70.7, "unit": "%"}
    ]}
  ]
}
